Laboratory results as given in article PMC7904806, “A phase I dose-finding, pharmacokinetics and genotyping study of olaparib and lurbinectedin in patients with advanced solid tumors” (Scientific Reports, 2021).
Values joined by “and” are separate entries in the source; they are usually repeats but may differ in a detail not shown here. Identical values can stand only once. “Also recorded” adds a separate entry of the source. Like-named read-outs stand apart in the source and are kept apart here. Values belong to the compound of their own block, whether it stands above or below them.

Columns and labels:
[1] = Pharmacokinetics in patients, cycle 1 (noncompartmental analysis); assay type: in vivo, human; conditions: for Drug–drug interactions (DDI): combination of lurbinectedin and olaparib
Text: Blood samples for pharmacokinetic (PK) analyses were collected during cycle 1, with a schedule of ten samples (Supplementary Table 5).
Safety and efficacy population comprised all patients who received at least one dose of the study treatment. Continuous variables were presented with summary statistics and qualitative variables with the absolute and relative frequencies. In those cases where it was necessary to ensure the normality of the continuous parameters, log transformation (or other suitable transformation) was performed. Analysis of Variance (ANOVA) was used for exploratory group comparisons. If Gaussian distribution assumptions (Shapiro–Wilks test) were not met, equivalent nonparametric methods as the Kruskal–Wallis, were performed. Chi-squared or Fisher exact test were used for qualitative parameters. To explore the change in value of a variable, between baseline and week 12 or any other time point, a t-test for paired data or the Wilcoxon signed-rank test was performed, based on the distribution followed by the corresponding variable. All statistical analyses were performed using IBM SPSS Statistics 22 and R v.3.4.3. PK analysis was performed according to the NCA. […] The dose-exposure relationships for Cmax and AUC for lurbinectedin and AUC 0–6 for olaparib will be evaluated and any potential PK interaction between olaparib and lurbinectedin were also explored. The population pharmacokinetics (PopPK) models for each drug was used to detect potential drug–drug interactions based on single agent PopPK models. The potential influence on selected PK parameters of selected demographic and clinical dichotomous variables (gender, laboratory test results above/below selected cutoff values, etc.) was evaluated by Student’s test Mann–Whitney’s U test as appropriate. For multinomial variables, analysis of variance was used. For selected continuous demographic and clinical variables, relationships with selected PK parameters were graphically explored and assessed using correlation and regression methods.
Supplementary Table 5. Sampling schedule for the determination of lurbinectedin and
Sample Time relative to the Sampling times Sampling times PK
number lurbinectedin for lurbinectedin for olaparib window
#1 1 0 min Pre-infusion Pre-dose -10 min to SOI
#2 1 0.5 h 30 min before EOI 30 min after 1st administration ±2 min
#3 1 0.92 h 5 min before EOI 55 min after 1st administration ±2 min
#4 1 1.5 h 30 min after EOI 1.5 h after 1st administration ±5 min
#5 1 3 h 2 h after EOI 3 h after 1st administration ±10 min
#6 1 4.5 h 3.5 h after EOI 4.5 h after 1st administration ±10 min
#7 1 6 h 5 h after EOI 6 h after 1st administration ±10 min
2 24 h after 1st administration
#8 24 h 23 h after EOI (immediately before 3rd olaparib administration) ±2 h
4 72 h after 1st administration
#9 † 72 h 71 h after EOI (immediately before 7th olaparib administration) +24 / -2 h […]

[2] = tested on: ovarian cancer cell lines; test: MTT cytotoxicity assay, panel of ovarian cancer cell lines; assay type: cell-based
Protocol: (§1) The following Ovarian Cancer Cell lines were analyzed: TOV112, SKOV-3, OVCAR-3, PEO1, PEO6, PEO4, A2780 and A2780-Cis (an A2780 variant made resistant to platinum), representing the main different molecular subtypes of ovarian cancer (Supplementary Table 6). These cell lines were maintained at 37 °C in 5% CO2 in RPMI‐1640 medium (Sigma‐Aldrich Co.) and DMEM medium (Sigma‐Aldrich Co.), all supplemented with 10% heat‐inactivated FBS (Sigma‐Aldrich Co.). To verify the genetic profile of the cell lines, a characterization of microsatellite markers was carried out (AmpFlSTR Identifiler PCR Amplification Kit, AppliedBiosystem).
(§2) For the pharmacological characterization of the different cell lines, dose–response curves were obtained for lurbinectedin (range between 25 and 0.0343 μM and 100–1.5625 μM dilution factor 3 and 2, respectively) and olaparib (range between […]). […] Cytotoxicity assay was assessed performing six technical replicates and three biological replicates per each curve point.
Before starting cytotoxicity assays to characterize the chemosensitivity of cell lines to study drugs, different time of exposures and doses were tested in order to establish the most suitable working conditions. […] Regarding olaparib, exposure times were established at 72, 96 and 120 h, measuring absorbance directly after treatment exposure (Supplementary Fig. 10). […]

A2780 = test: MTT cytotoxicity assay, A2780; assay type: cell-based; conditions: A2780, lowest IC50 of the panel
Protocol: as §1, §2
(§3) For MTT assay, cells were plated and after 24 h of incubation, treated with the drug (lurbinectedin/olaparib) either as a single agent or with both agents simultaneously. […] Finally, the absorbance was measured at 570 nm.

[3] = single-agent, cited from earlier work
[4] = cited from earlier work
A2780 CIS = test: MTT cytotoxicity assay, A2780 CIS; assay type: cell-based; conditions: A2780cis, lowest IC50 of the panel
Protocol: as §1, §2, §3

Structure (SMILES): COc1ccc2[nH]c3c(c2c1)CCN[C@]31CS[C@@H]2c3c(OC(C)=O)c(C)c4c(c3[C@H](COC1=O)N1[C@@H]2[C@H]2c3c(cc(C)c(OC)c3O)C[C@@H]([C@@H]1O)N2C)OCO4 [lurbinectedin]
- Drug–drug interactions (DDI) [1]: did not observe any potential drug–drug interactions; also recorded: no drug interactions
- Mean lurbinectedin CL ([1]; highest olaparib DL (250 mg BID)): 12 L/h
- Lurbinectedin CL variability ([1]; lurbinectedin 1 mg/m^2): 92%
- Lurbinectedin CL, one patient with high CL ([1]; lurbinectedin 1 mg/m^2): 37 L/h
- Lurbinectedin CL variability ([1]; lurbinectedin 1.5 mg/m^2): 36%
- Lurbinectedin CL variability ([1]; lurbinectedin 2 mg/m^2): 52%
- Lurbinectedin CL variabilities ([1]; olaparib 200 and 250 mg BID, lurbinectedin 1.5 and 2 mg/m^2): ~36%
- Mean lurbinectedin clearance (CL) ([1]; three lurbinectedin DLs, with olaparib): ~12 L/h
- IC50 reached after 1 h exposure ([2]; 1 h exposure, viability at 72 h): not enough to reach the IC50 value
- IC50 ([2]; all cell lines except OVCAR3, 72 h exposure): < 1 nM
- IC50 (A2780): 0.46 nM
- Grade 3–4 neutropenia ([3]; dose adjusted to body surface area ref 23): 57%
- Grade 3–4 neutropenia ([3]; flat dose ref 21): up to 85%
- Mean lurbinectedin CL as single-agent ([4]; single-agent ref 25): 12 L/h

- Olaparib PK parameters by lurbinectedin DL ([1]; NCA): did not show differences
- Drug–drug interactions (DDI) [1]: no drug interactions
- clearance ([1]; human, blood, oral, olaparib 100 mg, read-out: Olaparib CL (converted)): 50 mL/min
- clearance ([1]; human, blood, oral, olaparib DLs above 100 mg, read-out: Olaparib CL (converted)): 100 to 167 mL/min
- half-life ([1]; human, in vivo, oral, this trial, NCA samples until 6 h, read-out: Olaparib terminal half-life (converted)): 3 h
- clearance ([1]; human, in vivo, oral, this trial, read-out: Mean olaparib total body clearance (converted)): 117 mL/min
Structure (SMILES): O=C(c1cc(Cc2n[nH]c(=O)c3ccccc23)ccc1F)N1CCN(C(=O)C2CC2)CC1 [olaparib]
- IC50 (A2780 CIS): 2900 nM
- Olaparib total body clearance ([4]; literature ref 31): 5.1 L/h and 8.6 L/h
